Reference: patent publication EP0255420B1, “Antiviral agent for inhibiting growth of virus of acquired immune deficiency syndrome (AIDS)” (priority 1986, dated 1988)
Values after ≈ are worked out from the molar mass of the structure shown. Where two headings read alike, the source gives them in different places.

Key:
reverse transcriptase = reverse transcriptase (Human immunodeficiency virus type 1 group M subtype B, UniProt P04585); assay: Reverse transcriptase assay with disrupted HIV; assay type: biochemical; design: made in house; host or cells: virions from culture supernatants of HIV-producing Molt-4 cells (Molt-4/HIV), disrupted with Triton X-100
Method: Supernatants of Molt-4/HIV were concentrated 100 times by sucrose gradient ultracentrifugation. The viral pellets were disrupted by addition of suspension buffer containing 5 mM Tris-HCI(pH 8.1), 0.5 M KCI, 0.1 mM dithiothreitol and 0.1 % Triton® X-100. The assay for reverse transcriptase activity was performed at 37°C for 1 h with a 10 0 of the disrupted HIV in a final volume of 50 µl containing 50 mM Tris-HCI(pH 8.4), 2 mM dithiothreitol, 100 mM KCI, 10 mM MgCI, 0.01 % Triton X-100. 1 wCi 3H-thymidine triphosphate (57 Ci/m mol.; Amersham, Buckinghanshire, UK) and 50 gg/ml poly(rA)/oligo(dT)(P-L Biochemicals Inc., Milwaukee, Wis). The reaction was stopped with 5% trichloroacetic acid, and precipitates were collected on glass fibre filters and counted in a liquid scintillation counter (Harada et. al; Virology 146, p.272-281,1985b). The assays were carried out in triplicate.

herpes simplex virus [1] = conditions: cited from earlier work
VSV = conditions: cited from earlier work
HIV [2] = assay type: cell-based
Method: HIV was obtained from the culture supernatant of Molt-4/HIV. Titer of virus preparation was 6x10^4 plaque forming units/ml. Infection of MT-4 cells and clone No. 8 cells of Molt-4 with HIV was made at a multiplicity of infectin of 0.002.
To evaluate the direct effect of glycyrrhizin on the infection of HIV in MT-4 cells, plaque assay using agarose overlay medium with various concentrations of glycyrrhizin was performed. Briefly, in order to fasten MT-4 cells onto culture vessels, 35 mm polystyrene tissue culture dishes were coated with poly-L-lysine (Sigma Chemical Co., St. Louis,Mo) One and half milliliters of 1.50 x 10^6/ml MT-4 cells were dropped onto each poly-L-lysine-coated dish and incubator for 1 hour at room temperature. The dishes were gently washed with phosphate buffered saline to remove unbound cells, 100 p.1 of appropriate diluted virus preparation was slowly added and incubated for 1 hour at room temperature for virus adsorption. After adsorption, 1 ml of the agarose overlay medium consisting of RPMI 1640 medium with 10 % fetal calf serum, antibiotics and 0.6 % agarose (Sea plaque Agarose, Marine Colloid Corp., Rockland, Me) was poured into each dish. The dishes were incubated in a C02 incubator at 37°C for 3 days and 1 ml of agarose overlay medium containing neutral red was added. The dishes were incubated 3 more days and visible plaque were counted. All experiments were carried out in triplicate.

HIV [3] = assay: Assay for HIV induced cytopathic effects in HIV infected MT-4 cells (viable cells, trypan blue exclusion); assay type: cell-based; conditions: day 3, multiplicity of infection 0.002
MT-4 cells [4] = assay: Growth of MT-4 cells not exposed to virus (viable cell count); assay type: cell-based; conditions: 2 mg/ml
From the text: • Fig. 1 is a view showing direct effect of glycyrrhizin on HIV induced plaque forming activity in MT-4 cells. Results are the mean of two experiments each performed in triplicate. • Fig. 2 is a view showing inhibition of cytopathic effect of HIV on MT-4 cells by glycyrrhizin. […] Data are from a single experiment, representative of four separate experiments. […] The viable cells were detected by trypan blue exclusion staining method.

MT-4 cells [5] = assay: 3H-thymidine uptake in MT-4 cells (DNA synthesis); assay type: cell-based; conditions: 3 days
Method: (§1) MT-4 cells were adjusted to 3x10^5 cells/ml in fresh medium and cultured with various concentrations of glycyrrhizin in a 96-flat bottom well microtiter plate for 3 days. 10^6 pheripleral blood monouclear cells were cultured with 1 wg/ml of poly clonal mitogen PHA or concanavalin A various concentrations of glycyrrhizin for 3 days. Cells were incubated with either 1 µCi/well of ^3H-thymidine (20 Ci/m mol.; New Engl.Nuclear, Boston, MA), for the last 18 hours. The cells were harvested on a glassfiber filter paper and counted in a liquid scintillation counter. All experiments were carried out in triplicate.

HIV [6] = assay: Assay for HIV specific antigen expression in HIV infected MT-4 cells (indirect immunofluorescence); assay type: cell-based; conditions: for percentage of IF-positive cells: day 3 after infection
HIV particles = assay: Inactivation of HIV particles by glycyrrhizin (pre-incubation, then plaque assay); assay type: cell-based; conditions: even at 2 mg/ml, 60 min at 37°C
Method: 0.5 ml of HIV containing plaque forming units was mixed with 0.5 ml of various concentrations of glycyrrhizin in the test tubes and incubated at 37°C.
After 60 min. incubation 0.1 ml of each mixture was diluted with 19.9 ml of culture medium, and 0.1 ml of the […] diluted virus preparation was added. After adsorption, 1 ml of the agarose overlay medium consisting of RPMI-1640 medium with 10 % fetal calf serum, antibiotics and 0.6 % agarose was poured in. The maximum concentration of the diluted glycyrrhizin in plaque assay medium was 0.01 mg/ml, and this concentration itself reduced about 10 % of HIV induced plaque forming activity in MT-4 cells.

[7] = tested on: normal pheripleral blood monouclear cells; assay: 3H-thymidine uptake in normal peripheral blood mononuclear cells (lectin-induced blast formation); assay type: cell-based; conditions: normal lymphocytes, 3 days
Method: as §1

HIV [8] = assay: Cytopathic effect in HIV infected clone No.8 cells of Molt-4 (viable cells, viability); assay type: cell-based; conditions: 1 mg/ml
HIV [9] = assay: HIV-specific antigen expression in HIV infected clone No.8 cells of Molt-4 (immunofluorescence); assay type: cell-based; conditions: 1 mg/ml
HIV [10] = assay: Reverse transcriptase activity in culture fluids of HIV infected clone No.8 cells of Molt-4; assay type: cell-based; conditions: 1 mg/ml
HIV [11] = assay: Number of HIV in culture fluids of infected clone No.8 cells of Molt-4 (MT-4 cell plaque assay system); assay type: cell-based; conditions: 1 mg/ml
HIV [12] = assay: Cell fusion of HIV infected clone No.8 cells of Molt-4; assay type: cell-based; conditions: 1 mg/ml, day 6 and 9
Acute toxicity, rat = assay type: in vivo; conditions: Oral administration (rat)
[13] = mouse, in vivo, ip
herpes simplex virus [14] = conditions: human embryonic fibroblast; cited from earlier work
Varicella-Zoster virus = conditions: human embryonic fibroblast; cited from earlier work

Compound: Cc1cn([C@H]2C[C@H](N=[N+]=[N-])[C@@H](COP(=O)(O)OP(=O)(O)OP(=O)(O)O)O2)c(=O)[nH]c1=O [3' -azido-TIP, 3'-azido-3'-deoxythymidine triphosphate]
- inhibition of reverse transcriptase activity (reverse transcriptase; 0.005 mg/ml): 97%

Compound: CC1(C)[C@@H](O)CC[C@]2(C)[C@H]3C(=O)C=C4[C@@H]5C[C@@](C)(C(=O)O)CC[C@]5(C)CC[C@@]4(C)[C@]3(C)CC[C@@H]12 [glycyrrhetinic acid]
- replication of herpes simplex virus (herpes simplex virus [1]): suppress the replication
- inactivation of virus particles (herpes simplex virus [1]; herpes simplex virus incubated with compound for 30 min): inactivates the virus particles
- inactivation of virus particles (VSV; VSV incubated with compound for 30 min): inactivates the virus particles
- replication of VSV (VSV): suppress the replication

Compound: CC1(C)[C@@H](O[C@H]2O[C@H](C(=O)O)[C@@H](O)[C@H](O)[C@H]2O[C@@H]2O[C@H](C(=O)O)[C@@H](O)[C@H](O)[C@H]2O)CC[C@]2(C)[C@H]3C(=O)C=C4[C@@H]5C[C@@](C)(C(=O)O)CC[C@]5(C)CC[C@@]4(C)[C@]3(C)CC[C@@H]12 [glycyrrhizin]
- reduction of HIV induced plaque forming activity in MT-4 cells (HIV [2]; 0.01 mg/ml in plaque assay medium): about 10%
- suppression of plaque formation (HIV [2]; 0.05 mg/ml in agarose overlay medium, MT-4 cells): 34.2%
- inhibition of plaque formation (HIV [2]; 0.5 mg/ml, MT-4 cells): completely inhibited
- inhibition of plaque formation (HIV [2]; 1 mg/ml, MT-4 cells): completely inhibited
- selectivity index (the ratio on the ID50 for host cell DNA synthesis to the average ID50 for HIV) (HIV [2]; MT-4 cells): 17.2
- ID50 (plaque formation of HIV) (HIV [2]; MT-4 cells, Fig.1): 0.125 mg/mL
- growth inhibition of infected cultures as compared with the uninfected MT-4 cells (HIV [3]; 0.25 mg/ml): not significant
- growth inhibition of infected cultures as compared with the uninfected MT-4 cells (HIV [3]; 0.5 mg/ml): not significant
- growth inhibition of infected cultures as compared with the uninfected MT-4 cells (HIV [3]; 1 mg/ml): not significant
- growth inhibition (MT-4 cells [4]): 50%
- ID50 for DNA synthesis of uninfected MT-4 cells (MT-4 cells [5]): 2.15 mg/mL
- percentage of IF-positive cells (HIV [6]; 0.005 mg/ml): 70.9
- percentage of IF-positive cells (HIV [6]; 0.05 mg/ml): 69.3
- expression of HIV-specific antigen (in words) (HIV [6]; 0.25 mg/ml): significant inhibition
- percentage of IF-positive cells (HIV [6]; 0.25 mg/ml): 23.3
- expression of HIV-specific antigen (in words) (HIV [6]; 0.5 mg/ml): almost completely suppressed
- percentage of IF-positive cells (HIV [6]; 0.5 mg/ml): 1.0
- expression of HIV-specific antigen (in words) (HIV [6]; 1 mg/ml): almost completely suppressed
- percentage of IF-positive cells (HIV [6]; 1 mg/ml): 0.6
- inactivation of HIV particles (HIV particles): did not inactivate
- ID50 on PHA response ([7]; PHA): 2.1 mg/mL (≈ 2550 µM)
- ID50 on concanavalin A response ([7]; concanavalin A): 2.0 mg/mL (≈ 2430 µM)
- viability (HIV [8]; on day 3): 91.4%
- viable cells (HIV [8]; on day 3): 1.5e+06 mL⁻¹
- viability (HIV [8]; on day 6): 83.4%
- viable cells (HIV [8]; on day 6): 3.4e+06 mL⁻¹
- viability (HIV [8]; on day 9): 84.4%
- viable cells (HIV [8]; on day 9): 7.57e+06 mL⁻¹
- IF posivive cells (HIV [9]; on day 6): 7.1%
- IF positive cells (HIV [9]; on day 9): 5.8%
- RT (HIV [10]; on day 3, CPM per 10^4 viable cells): 1536 cpm
- RT (HIV [10]; on day 6, CPM per 10^4 viable cells): 5369 cpm
- RT (HIV [10]; on day 9, CPM per 10^4 viable cells): 4369 cpm
- number of HIV (HIV [11]; on day 3): 500< pfu/ml
- number of HIV (HIV [11]; on day 6): 500< pfu/ml
- number of HIV (HIV [11]; on day 9): 1000 pfu/ml
- fusion on clone No.8 cells of Molt-4 (HIV [12]): did not occur
- LD5o (Acute toxicity, rat): 3.0 g/kg
- LD5o [13]: 225 to 244 mL/kg
- ID50 against herpes simplex virus (herpes simplex virus [14]): 0.60 mg/mL (≈ 729 µM)
- ID50 against Varicella-Zoster virus (Varicella-Zoster virus): 0.58 mg/mL (≈ 705 µM)
- LD5o (Acute toxicity, mouse; Intravenous injection 2 % aqueous solution (mouse)): 682.5 mg/kg
- LD5o (Acute toxicity, mouse; Subcutaneous injection 5 % aqueous solution (mouse)): 1873.3 mg/kg
- inhibition of reverse transcriptase activity of HIV (in words) (reverse transcriptase; even at 10 mg/ml): did not inhibit
